The source of these data is US7501429B2, “Pyrimidine compounds as anti-ictogenic and/or anti-epileptogenic agents” (Queen's University at Kingston, priority 2001, dated 2009).

This experiment has as its system pilocarpine induced-seizures. Briefly: Pilocarpine induced-seizure (PIS) model. Type of experiment: in vivo. The settings on record: uracils in the Pilocarpine model; scale maximum = 4. The procedure: Pilocarpine Induced-seizure (PIS) Model
All test compounds are normally dissolved in a mixture of saline (NaCl 0.9% by mass) and 10% DMSO. However, in case of solubility problems, the concentration of DMSO may be increased to a maximum of 50%. This biological test is performed following the procedure disclosed in PCT publication WO 98/40055 (Queen's University at Kingston).
On to `O=c1cc[nH]c(=O)[nH]1` [Compound P1, 1H-pyrimidine-2,4-dione], for which the “Relative Activity (Maximum = 4)” value was “Active - +2”.

For `Cc1c[nH]c(=O)[nH]c1=O` [Compound P2, 5-methyl-1H-pyrimidine-2,4-dione], the “Relative Activity (Maximum = 4)” value is “Active - +2”.

For the compound `O=c1[nH]cc(CO)c(=O)[nH]1` [Compound P3, 5-hydroxymethyl-1H-pyrimidine-2,4-dione], the “Relative Activity (Maximum = 4)” value is given as “Active - +3”.

For `O=c1[nH]cc(O)c(=O)[nH]1` [Compound P4, 5-hydroxy-1H-pyrimidine-2,4-dione], the “Relative Activity (Maximum = 4)” value is given as “Active - +2”.

Turning to `O=c1[nH]cc(Br)c(=O)[nH]1` [Compound P5, 5-bromo-1H-pyrimidine-2,4-dione], the “Relative Activity (Maximum = 4)” value is “Active - +1”.

Turning to `O=c1[nH]cc(I)c(=O)[nH]1` [Compound P6, 5-iodo-1H-pyrimidine-2,4-dione], the “Relative Activity (Maximum = 4)” value is “Active - +1”.

As for `Cc1cc(=O)[nH]c(=O)[nH]1` [Compound P7, 6-methyl-1H-pyrimidine-2,4-dione], the “Relative Activity (Maximum = 4)” value was “Active - +3”.

With `Cc1[nH]c(=O)[nH]c(=O)c1Br` [Compound P8, 5-bromo-6-methyl-1H-pyrimidine-2,4-dione], the “Relative Activity (Maximum = 4)” value is reported as “Active - +2”.

On to `Cc1[nH]c(=O)[nH]c(=O)c1[N+](=O)[O-]` [Compound P9, 6-methyl-5-nitro-1H-pyrimidine-2,4-dione], for which the “Relative Activity (Maximum = 4)” value is listed as “Active - +2”.

Take `Nc1c(C(=O)O)[nH]c(=O)[nH]c1=O` [Compound P10, 5-amino-2,6-dioxo-1,2,3,6-tetrahydro-pyrimidine-4-carboxylic acid]: the “Relative Activity (Maximum = 4)” value was “Minimally Active”.

`O=C(O)c1cc(=O)[nH]c(=O)[nH]1` [Compound P11, 2,6-dioxo-1,2,3,6-tetrahydro-pyrimidine-4-carboxylic acid]: the “Relative Activity (Maximum = 4)” value is “Active - +2”.

On to `O=C(O)c1c[nH]c(=O)[nH]c1=O` [Compound P12, 2,4-dioxo-1,2,3,4-tetrahydro-pyrimidine-5-carboxylic acid], for which the “Relative Activity (Maximum = 4)” value is recorded as “Active - +2”.

Turning to `Cn1cc([N+](=O)[O-])c(=O)n(C)c1=O` [Compound P13, 1,3-dimethyl-5-nitro-1H-pyrimidine-2,4-dione], the “Relative Activity (Maximum = 4)” value is reported as “Minimally Active”.

Regarding `Cc1[nH]c(=O)[nH]c(=O)c1C` [Compound P14, 5,6-dimethyl-1H-pyrimidine-2,4-dione], the “Relative Activity (Maximum = 4)” value was “Active - +2”.

Turning to `CCCCc1cc2c[nH]c(=O)nc2o1` [Compound P17, 6-butyl-3H-furo[2,3-d]pyrimidin-2-one], the “Relative Activity (Maximum = 4)” value is listed as “Active - +1”.

In the case of `CCCCC#Cc1c[nH]c(=O)[nH]c1=O` [Compound P18, 5-hex-1-ynyl-1H-pyrimidine-2,4-dione], the “Relative Activity (Maximum = 4)” value was “Active - +1”.

Turning to `Cc1cn(C2CC(O)C(CO)O2)c(=O)[nH]c1=O` (stereo not drawn) [Compound P19, 1-(4-hydroxy-5-hydroxymethyl-tetrahydro-furan-2-yl)-5-methyl-1H-pyrimidine-2,4-dione], the “Relative Activity (Maximum = 4)” value is given as “Minimally Active”.

As for `CCC(C)n1cc(Br)c(=O)[nH]c1=O` (stereo not drawn) [Compound P20, 5-bromo-1-sec-butyl-1H-pyrimidine-2,4-dione], the “Relative Activity (Maximum = 4)” value was “Active - +1”.

For `CC(C)n1cc(Br)c(=O)[nH]c1=O` [Compound P21, 5-bromo-1-isopropyl-1H-pyrimidine-2,4-dione], the “Relative Activity (Maximum = 4)” value is reported as “Active - +1”.

With `O=c1[nH]c(=O)n(Cc2ccccc2)cc1Br` [Compound P22, 1-benzyl-5-bromo-1H-pyrimidine-2,4-dione], the “Relative Activity (Maximum = 4)” value is “Active - +1”.

On to `O=c1[nH]c(=O)n(CC2CCCCC2)cc1Br` [Compound P23, 5-bromo-1-cyclohexylmethyl-1H-pyrimidine-2,4-dione], for which the “Relative Activity (Maximum = 4)” value is reported as “Minimally Active”.

In the case of `O=c1c(Br)cn(CC2CCCCC2)c(=O)n1CC1CCCCC1` [Compound P24, 5-bromo-1,3-bis-cyclohexylmethyl-1H-pyrimidine-2,4-dione], the “Relative Activity (Maximum = 4)” value is listed as “Minimally Active”.

As for `O=c1c(Br)cn(Cc2ccc([N+](=O)[O-])cc2)c(=O)n1Cc1ccc([N+](=O)[O-])cc1` [Compound P25, 5-bromo-1,3-bis-(4-nitro-benzyl)-1H-pyrimidine-2,4-dione], the “Relative Activity (Maximum = 4)” value is “Active - +2”.

As for `O=c1ccn(Cc2ccccc2)c(=O)[nH]1` [Compound P26, 1-benzyl-1H-pyrimidine-2,4-dione], the “Relative Activity (Maximum = 4)” value was “Active - +2”.

On to `Cc1cc(=O)[nH]c(=O)n1Cc1ccccc1` [Compound P27, 1-benzyl-6-methyl-1H-pyrimidine-2,4-dione], for which the “Relative Activity (Maximum = 4)” value is “Active - +2”.

As to `CSCc1c[nH]c(=O)[nH]c1=O` [Compound P31, 5-methylsulfanylmethyl-1H-pyrimidine-2,4-dione], the “Relative Activity (Maximum = 4)” value is listed as “Minimally Active”.

With `O=c1[nH]c(=O)n(Cc2ccccc2)cc1I` [Compound P32, 1-benzyl-5-iodo-1H-pyrimidine-2,4-dione], the “Relative Activity (Maximum = 4)” value was “Active +1”.

For the compound `Cc1cc(=O)n(Cc2ccc([N+](=O)[O-])cc2)c(=O)n1Cc1ccc([N+](=O)[O-])cc1` [Compound P33, 6-methyl-1,3-bis-(4-nitro-benzyl)-1H-pyrimidine-2,4-dione], the “Relative Activity (Maximum = 4)” value is on record as “Active +2”.

For the compound `Cn1ccc(=O)[nH]c1=O` [Compound P34, 1-methyl-1H-pyrimidine-2,4-dione], the “Relative Activity (Maximum = 4)” value is recorded as “Minimally Active”.

With `Cn1ccc(=O)n(C)c1=O` [Compound P35, 1,3-dimethyl-1H-pyrimidine-2,4-dione], the “Relative Activity (Maximum = 4)” value is recorded as “Active +3”.

For the compound `CC(C)n1ccc(=O)n(C(C)C)c1=O` [Compound P36, 1,3-diisopropyl-1H-pyrimidine-2,4-dione], the “Relative Activity (Maximum = 4)” value is recorded as “Active +2”.

On to `O=c1ccn(CCCO)c(=O)n1CCCO` [Compound P37, 1,3-bis-(3-hydroxy-propyl)-1H-pyrimidine-2,4-dione], for which the “Relative Activity (Maximum = 4)” value is “Active +2”.

On to `NN1C(=O)CCN(Cc2ccccc2)C1=O` [Compound P38, 3-amino-1-benzyl-dihydro-pyrimidine-2,4-dione], for which the “Relative Activity (Maximum = 4)” value was “Active +2”.

In the case of `CC1CC(=O)N(N)C(=O)N1Cc1ccccc1` (stereo not drawn) [Compound P39, 3-amino-1-benzyl-6-methyl-dihydro-pyrimidine-2,4-dione], the “Relative Activity (Maximum = 4)” value is reported as “Active +3”.

Consider `NC(=O)c1cnn(-c2cccc(N)c2)c1` [Compound P42, 1-(3-amino-phenyl)-1H-pyrazole-4-carboxylic acid amide], for which the “Relative Activity (Maximum = 4)” value is recorded as “Active +2”.

As to `O=c1c(Cc2cn(Cc3ccccc3)c(=O)n(Cc3ccccc3)c2=O)cn(Cc2ccccc2)c(=O)n1Cc1ccccc1` [Compound P43], the “Relative Activity (Maximum = 4)” value is “Active +3”.
